Broadly, the inhibition is the relative decrease from the control value, in per cent.

Where two headings read alike, the source gives them in different places.

One data set relates to BSMC. Kind of data set: Cell rounding, BSMC. It counts as cell-based, bovine. As to conditions: 5 μM.
In data set [1] the test system is BALB/MK keratinocytes. Kind of data set: DNA synthesis (3H-thymidine incorporation) in BALB/MK keratinocytes. It counts as cell-based, murine. The conditions noted are these: for IC (maximal): Mus musculus, Keratinocyte. The procedure:
The BALB/MK epidermal keratinocyte cell line, kindly provided by Dr. S Aaronson (National Cancer Institute, Bethesda, Md., USA), was cultured (37° C., 10% CO2 humidified atmosphere) in calcium-free MEM (Beth Haemek, Israel) supplemented with 10% dialyzed FCS and murine EGF (5 ng/ml).
(§1) Bovine capillary endothelial cells (BCE) and bovine aortic BSMC were plated in 24-well plates (6000 cells per well) in 500 μl DMEM medium supplemented with 10% Colorado calf serum (CCS) (GIBCO, USA) and GPS. After 24 hours, medium was changed to starvation medium (2% CCS, 0.5% BSA, GPS) for 24 hours. ^3 H-methyl-thymidine (5 μCi/ml) was added for the last 6 hours. DNA synthesis assays were performed as described above, in triplicates. DNA synthesis assays in BALB/MK keratinocytes were performed as previously described (Marikovsky, 1995).-DNA synthesis assays were performed in triplicates.
(§2) Disulfiram was prepared in 0.1 mM stock solutions in DMSO. Control samples were incubated with the appropriate concentration of DMSO. Inhibition was calculated as percentage of DNA synthesis of control.
(§3) To determine whether disulfiram acts directly on endothelial cells rather than on accessory cells such as macrophages and mast cells that can be responsible for the development of an angiogenic response in vivo, the effect of the drug on the growth of BCE cells was examined in vitro as described in section (c) of "Materials and Methods" above. DNA synthesis in BCE cells was measured in presence of increasing concentrations of disulfiram incubated for 24 hours with the cells. […] Maximal inhibitory activity (80%) for BSMC was at 0.5-1 μM disulfiram, while maximal inhibitory activity for C6 glioma cells or BALB/MK keratinocytes was at concentrations 10 fold higher (2-3 μM) than those for endothelial cells (0.2-0.5 μM).
(§4) To examine the time course of the effect of disulfiram and whether the effect was reversible, cells were incubated with disulfiram for various periods of time (1, 2, 4 and 24 hours), then washed away and DNA synthesis was determined. One to 4 hours of exposure to disulfiram were enough to induce maximal inhibitory effect at concentrations ranging from 0.5 μM for BCE cells (FIG. 3A) to 5 μM for BALB/MK keratinocytes (FIG. 3C) and C6 glioma cells (FIG. 3D). […] BSMC were less sensitive as far as time course is concerned when incubated with 1 μM disulfiram. Following 4 hours of incubation with 1 μM disulfiram, DNA synthesis inhibition in BSMC reached only 50% (FIG. 3B). The data shown here indicate that the damage for capillary endothelial cells, following a short incubation of 1 to 2 hours, was maximal and that, at least in a time scale of 24 hours, this damage was non-reversible.
(Incorporation of labelled thymidine or its analogues reports DNA synthesis.)

For a further data set, the system named is dopamine-β-hydroxylases. As to conditions: cited from earlier work.
The subject of a further data set is fibroblasts. The experiment in a line: Induction of apoptosis, fibroblasts. In kind it is cell-based.
Data set [2] relates to bovine aortic vascular smooth muscle cells (BSMC). The experiment in a line: DNA synthesis (3H-thymidine incorporation) in BSMC. It counts as cell-based. The procedure: Bovine aortic vascular smooth muscle cells (BSMC) were cultured in low glucose DMEM (1 g/liter) supplemented with 10% FCS (HyClone, Logan, Utah) and GPS.
as §1
Disulfiram was prepared in 0.1 mM stock solutions in DMSO. […] Inhibition was calculated as percentage of DNA synthesis of control.
To determine whether disulfiram acts directly on endothelial cells rather than on accessory cells such as macrophages and mast cells that can be responsible for the development of an angiogenic response in vivo, the effect of the drug on the growth of BCE cells was examined in vitro as described in section (c) of "Materials and Methods" above. DNA synthesis in BCE cells was measured in presence of increasing concentrations of disulfiram incubated for 24 hours with the cells. […]

For data set [3] the following is noted: in vivo; cited from earlier work.
In a further data set the test system is Meth A tumor cell. The conditions noted are these: together with ascorbic acid, in vitro; cited from earlier work.
Another data set deals with murine leukemia. The conditions noted are these: 3 mg/mouse; cited from earlier work.
For data set [4] the following is noted: ingested or injected intraperitoneally; cited from earlier work.
The test system of data set [5] is bovine capillary endothelial cells (BCE). Kind of data set: DNA synthesis (3H-thymidine incorporation) in BCE cells. In kind it is cell-based. The procedure:
Brain bovine capillary endothelial cells (BCE) and bovine vascular smooth muscle cells (BSMC), kindly provided by Prof. Israel Vlodavsky (Hadassah Medical School, Jerusalem, Israel), were cultured at 37° C. in low glucose DMEM (1 g/liter) supplemented with 10% calf serum (HyClone, Logan, Utah, U.S.A.), a serum-free supplement: biogro-1 (Beth Haemek, Israel) and GPS.
as §1, §2, §3, §4

Another data set has as its system bladder cancer. The conditions noted are these: N-butyl-N-(4-hydroxybutyl)nitrosamine or N-butyl-N-(3-carboxypropyl)nitrosamine, rats; cited from earlier work.
Data set [6] concerns BALB/MK keratinocytes. The experiment in a line: TUNEL assay for apoptosis, BALB/MK keratinocytes. It counts as cell-based, murine. The conditions noted are these: 5 μM. Here is the method:
Cells were cultured on microscope slides for 48 hours in presence of growth media as described above, until reaching 40-50% confluency. […] Apoptosis was analyzed by the in situ TUNEL staining carried out as described (Wride, 1994). Briefly, microscope slides were incubated for 15 min in 2×SSC buffer at 60° C., washed in DDW and incubated with 20 μg/ml proteinase K (Boehringer Mannheim) for 15 min at room temperature. After a wash with DDW, endogenous peroxidases were inactivated by incubating the slides with 2% H2 O2 in PBST (PBS with 0.05% Tween 20) for 10 min at room temperature. Slides were then incubated in TdT buffer (Boehringer Mannheim) for 5 min at room temperature, and a reaction mixture containing 5×TdT buffer and 1 μl biotin-21-dUTP (Clontech, 1 mM stock) and 8 units of the TdT enzyme (Boehringer Mannheim) in total volume of 50 μl was subsequently added. The reactions were carried out at 37° C. for 1.5 hr in a humid chamber. The slides were washed in 2×SSC, DDW and finally with PBS and covered with 10% skim milk in PBST for 15 min. After removal of the skim milk, the sections were incubated with ABC solution from ABC kit (Vector Laboratories, Inc.) for 30 min at room temperature, washed with PBS and stained using AEC procedure (Sigma) The slides were then washed ×3 in DDW and stained with haematoxylin for 30 sec and mounted by Kaiser's glycerol gelatin (Merck). […]

`CCN(CC)C(=S)SSC(=S)N(CC)CC` [disulfiram, Bis(diethylthiocarbamoyl) disulfide]: in the data set with BSMC, the cell rounding entry is reported as “did not change their shape to the rounded form”. For the same compound, the “maximal inhibitory concentration relative to endothelial cells, fold higher” value in the data set on BALB/MK keratinocytes [1] (BALB/MK vs endothelial cells (0.2-0.5 μM)) is on record as 10 fold. The “persistence of inhibitory effect after short exposure” value is recorded as “inhibitory effect seemed to be maintained” in the data set on BALB/MK keratinocytes [1] (MK, 24 hours following short exposure) and “inhibitory effect seemed to be maintained” in data set [5] (BCE, 24 hours following short exposure). The IC (maximal) in the data set on BALB/MK keratinocytes [1] (BALB/MK keratinocytes, read-out: concentration of maximal inhibitory activity (DNA synthesis)) was 2 to 3 µM; in the data set with BALB/MK keratinocytes [1] (BALB/MK, 1 to 4 hours of exposure, washed, read-out: concentration inducing maximal inhibitory effect on DNA synthesis, short exposure), 5 µM; in data set [5] (Bos taurus, Endothelial cell, BCE (endothelial cells), 24 hours, read-out: concentration of maximal inhibitory activity (DNA synthesis)), 0.2 to 0.5 µM; in [5] (Bos taurus, Endothelial cell, BCE, 1 to 4 hours of exposure, washed, read-out: concentration inducing maximal inhibitory effect on DNA synthesis, short exposure), 0.5 µM. Further, the “inhibition of dopamine-β-hydroxylases” value with dopamine-β-hydroxylases is “inhibit”. In addition, the induction of apoptosis result in the data set with fibroblasts is listed as “fails to induce apoptosis”. Moreover, in data set [2] (0.5-1 μM disulfiram), the “maximal inhibitory activity (DNA synthesis)” value is on record as 80%. This compound came in with an inhibition at 1 µM in [2] (Bos taurus, 1 μM, 4 hours of incubation) of 50%. Moreover, the “conversion into main metabolite diethyldithiocarbamate (DDC)” value in [3] is recorded as “quickly converted”. The “inhibition of Meth A tumor cell proliferation” value with Meth A tumor cell is listed as “augmented inhibition”. In addition, the “potentiation of nitrogen mustard (HN2) cytotoxicity” value in the data set with murine leukemia is “potentiate”. Also, the “distribution throughout the body” value in [4] is given as “extensively distributed throughout the body including the brain”. For the same compound, in [5] (0.1-0.5 μM, 24 hours), the “inhibition of DNA synthesis in BCE cells (in words)” value was “inhibit DNA synthesis in BCE cells in a dose dependent manner”. Also, in data set [5] (1 to 2 hours incubation, time scale of 24 hours), the “reversibility of damage for capillary endothelial cells” value is “non-reversible”. The “concentration used in vitro for endothelial cells (inhibition of growth)” value in data set [5] (BCE) was in the range of 0.1 to 0.2 µM. Moreover, the “inhibition of DNA synthesis, short incubation (in words)” value in [5] (BCE, 0.5 μM, 1-2 hours of incubation) is “near maximal inhibition of DNA synthesis”. Further, the IC100 in data set [5] (Bos taurus, Endothelial cell, BCE, 24 hours, read-out: concentration of complete inhibition of DNA synthesis) is 0.5 µM. Also, the “interference with induction of bladder cancer” value in the data set with bladder cancer is “interfere with induction of cancer”. Further, the “apoptosis by TUNEL method” value in the data set on BALB/MK keratinocytes [6] was “did not induce”.

(Values after patent US6288110A, “Pharmaceutical compositions comprising disulfiram” (Yeda Research and Development Co Ltd., priority 1998, dated 2001).)
